Experimental data reported in patent publication US20240182413A1, “INSECTICIDAL COMPOUNDS” (Pluton Biosciences, Inc., priority 2022, published 2024).
Several values for one entry are separate records, joined by “and”; a condition that tells them apart may be missing. Equal values may be shown once. Read-outs that look alike come from different tables or passages of the source.

Legend:
Vip3A resistant FAW = assay: Killing of Vip3A resistant fall armyworm; assay type: in vivo, Spodoptera frugiperda; settings: 1000 ppm BIM compound, 20 μl on diet surface, 5-7 days
Experimental: (§1) During the development of embodiments of the technology provided herein, experiments were conducted to test the killing potency of arundine-derived BIM compounds against strains of fall armyworm (FAW) that are resistant to Bacillus thuringiensis (Bt) insecticidal proteins (e.g., Cry1Fa and Vip3A). Susceptible FAW (Spodoptera frugiperda) was obtained from Benzon Research Inc, Lancaster, PA. Cry1Fa resistant FAW originating from Puerto Rico was reared in a facility by Genective (Weldon, IL). Vip3A resistant FAW originating from southern US was reared in a facility by Genective (Weldon, IL).
(§2) FAW eggs were incubated at approximately 26° C. at 50% relative humidity until eclosion (approximately 3 days) and the hatch was timed to within 12 hours of infesting the diet plates. BIM compounds were obtained from frozen stocks, thawed, suspended in 5% DMSO along with NYSM buffer to provide a solution of 2000 ppm BIM compound in a total volume of 1.0 ml, and stored at −20° C. For testing, a single tube of each BIM compound sample was thawed at 4° C. NYSM buffer was warmed to room temperature. A volume of 750 μl. NYSM buffer was added to 750 μl from each 1.0-ml volume to prepare samples of 1.5 ml BIM compound at 1000 ppm for testing. A total of three BIM preparations per BIM molecule were prepared and tested for killing potency. Compounds tested were BIM-1, 11, 25, 26, 28, 29, 30, 32, 34. A solution of 5% DMSO in NYSM buffer was used as a negative control.
A standard commercially available semi-solid lepidopteran diet was prepared following manufacturer's instructions (Frontier, multi-species diet). […] LB+Kanamycin (antibiotic) growth media is the negative control for bacterial cultures. […]
(§3) For each of 3 replicates, 200 μl of diet was prepared in wells of a 96-well plate and the diet plates were warmed to room temperature prior to dispensing samples. […] All bioassays were assessed visually to record larval mortality and growth inhibition.

Cry1Fa resistant FAW = assay: Killing of Cry1Fa resistant fall armyworm; assay type: in vivo, Spodoptera frugiperda; settings: 1000 ppm BIM compound, 20 μl on diet surface, 5-7 days
Experimental: as §1, §2
A standard commercially available semi-solid lepidopteran diet was prepared following manufacturer's instructions (Frontier, multi-species diet). […] LB+Kanamycin (antibiotic) growth media is the negative control for bacterial cultures. Cry1Fa is a positive control prepared as E. coli cells expressing the full-length Cry1Fa protein resuspended in PBS buffer at half the volume of the original growth culture resulting in 2× concentration of cells. Vip3A is a positive control prepared as E. coli whole cell culture expressing Vip3A.
For each of 3 replicates, 200 μl of diet was prepared in wells of a 96-well plate and the diet plates were warmed to room temperature prior to dispensing samples. After 750 μl NYSM buffer was added to 750 μl from each 1.0-ml volume to prepare samples of 1.5 ml BIM compound at 1000 ppm for testing, BIM solutions were vortexed and 20 μl were dispensed onto the diet surface in each of 16 wells using a repeating pipettor. These steps were repeated for each sample and control for each insect population being tested. BIM compound and control solutions were allowed to absorb into the diet in a biosafety hood until the diet surface was visibly dry. Once dry, wells were sealed with a clear membrane. Two pin holes were poked through the membrane in each well to maintain appropriate humidity level and aeration. Each well was infested with a single neonate larva, and the wells were resealed with perforated membrane to prevent escape. The infested plates were incubated in environmental chambers at 26° C. and 50% relative humidity for 5-7 days. All bioassays were assessed visually to record larval mortality and growth inhibition.

[1] = test system: Spodoptera frugiperda (fall armyworm) first instar larvae; assay: Spodoptera frugiperda killing assay (diet-surface overlay); assay type: in vivo
Experimental: Insect killing assays. Each compound was dissolved in dimethyl sulfoxide (DMSO). Killing dose curves were constructed for each compound by producing a two-fold dilution series of the compound (e.g., comprising approximately 16 serial dilutions of a stock for 3,3′-diindolylmethane and 3-((1H-Indol-2-yl)methyl)-1H-indole and comprising approximately 12 serial dilutions of a stock for 3,3′-diindolyl and 3,3′-(pyridin-4-ylmethylene)bis(1H-indole)). Dilutions were made in sterile NYSM broth as described above. The two-fold dilution series were tested in a killing bioassay as described below. Data were collected to construct a dose curve and determine the half-maximal lethal concentration (LC50) value.
Bioassays were performed using first instar larvae of the Lepidopteran species Spodoptera frugiperda (fall armyworm), with an N=16 for each concentration of compound tested. S. frugiperda larvae were purchased from Benzon Research, Inc. (Carlisle, PA). A diet-surface overlay format was used in which 1 milliliter of standard lepidopteran diet was placed in each well. One hundred microliters of sample were pipetted into each well and allowed to dry. A DMSO control was included with each set of samples.
During the development of embodiments of the technology described herein, experiments were conducted to test the killing of arundine against a panel of 11 insect species. […] Briefly, arundine was dissolved in dimethyl sulfoxide (DMSO). Killing dose curves were constructed by producing a two-fold dilution series of arundine. Dilutions were made in sterile NYSM as described. The two-fold dilution series were tested in a killing bioassay performed using first instar larvae of the species listed in Table 4, with an N=16 for each concentration of compound tested. A diet-surface overlay format was used in which 1 milliliter of standard lepidopteran diet was placed in each well. One hundred microliters of sample were pipetted into each well and allowed to dry. A DMSO control was included with each set of samples. […] Data were collected to construct a dose curve and determine the half-maximal lethal concentration (LC50) value.

[2] = test system: fall armyworm (FAW), susceptible and the two resistant varieties (Cry1 and Vip3A); assay: Killing of susceptible and Bt-resistant fall armyworm (strain not specified); assay type: in vivo, Spodoptera frugiperda; settings: 1000 ppm BIM compound, 20 μl on diet surface, neonate larvae, at 7 days
Experimental: as §1
FAW eggs were incubated at approximately 26° C. at 50% relative humidity until eclosion (approximately 3 days) and the hatch was timed to within 12 hours of infesting the diet plates. BIM compounds were obtained from frozen stocks, thawed, suspended in 5% DMSO along with NYSM buffer to provide a solution of 2000 ppm BIM compound in a total volume of 1.0 ml, and stored at −20° C. For testing, a single tube of each BIM compound sample was thawed at 4° C. NYSM buffer was warmed to room temperature. A volume of 750 μl. […]
as §3

[3] = test system: fall armyworm (Spodoptera frugiperda); settings: after seven days of exposure; cited from earlier work
[4] = test system: D. grandiosella (Southwestern corn borer) first instar larvae; assay: Insect panel killing assay (diet-surface overlay); assay type: in vivo
Experimental: (§4) During the development of embodiments of the technology described herein, experiments were conducted to test the killing of arundine against a panel of 11 insect species. Killing assays were performed as described in Example 2 for Spodoptera frugiperda. Briefly, arundine was dissolved in dimethyl sulfoxide (DMSO). Killing dose curves were constructed by producing a two-fold dilution series of arundine. Dilutions were made in sterile NYSM as described. The two-fold dilution series were tested in a killing bioassay performed using first instar larvae of the species listed in Table 4, with an N=16 for each concentration of compound tested. A diet-surface overlay format was used in which 1 milliliter of standard lepidopteran diet was placed in each well. One hundred microliters of sample were pipetted into each well and allowed to dry. A DMSO control was included with each set of samples. Spinosad (MilliporeSigma, catalog #33706) was used as a positive control for insecticidal activity, and water was used as an additional negative control. Data were collected to construct a dose curve and determine the half-maximal lethal concentration (LC50) value. In Table 4, % of insects killed is provided in the table cells for the concentrations listed at the top (2500, 625, 156, and 0 μg/mL arundine).

[5] = test system: H. virescens (Tobacco budworm) first instar larvae; assay: Insect panel killing assay (diet-surface overlay); assay type: in vivo
Experimental: as §4

[6] = test system: S. eridania (Southern armyworm) first instar larvae; assay: Insect panel killing assay (diet-surface overlay); assay type: in vivo
Experimental: as §4

[7] = test system: H. zea (Corn earworm) first instar larvae; assay: Insect panel killing assay (diet-surface overlay); assay type: in vivo
Experimental: as §4

[8] = test system: A. gemmatalis (Velvetbean caterpillar) first instar larvae; assay: Insect panel killing assay (diet-surface overlay); assay type: in vivo
Experimental: as §4

[9] = test system: S. exigua (Beet armyworm) first instar larvae; assay: Insect panel killing assay (diet-surface overlay); assay type: in vivo
Experimental: as §4

[10] = test system: C. includens (Soybean looper) first instar larvae; assay: Insect panel killing assay (diet-surface overlay); assay type: in vivo
Experimental: as §4

[11] = test system: T. ni (Cabbage looper) first instar larvae; assay: Insect panel killing assay (diet-surface overlay); assay type: in vivo
Experimental: as §4

[12] = test system: D. saccharalis (Sugarcane borer) first instar larvae; assay: Insect panel killing assay (diet-surface overlay); assay type: in vivo
Experimental: as §4

[13] = test system: C. pomonella (Codling moth) first instar larvae; assay: Insect panel killing assay (diet-surface overlay); assay type: in vivo
Experimental: as §4

Aedes aegypti larvae = assay: Aedes aegypti killing assay (larval bioassay, two-fold dilution series); assay type: in vivo; settings: Aedes aegypti, 72 h
Experimental: Insect killing assays. Each compound was dissolved in dimethyl sulfoxide (DMSO). Killing dose curves were constructed for each compound by producing a two-fold dilution series for each compound (e.g., comprising approximately 20 serial dilutions of a stock). Dilutions were made in sterile nutrient yeast extract salt medium (NYSM) broth. The NYSM contained 8 g/L nutrient broth powder, 0.5 g/L yeast extract, 1 mM MgCl2, 700 μM CaCl2, and 50 μM MnCl2 in water. The two-fold dilution series were tested in a killing bioassay as described below. Data were collected to construct a dose curve and determine the half-maximal lethal concentration (LC50) value.
Bioassays were performed using second or third instar Aedes aegypti larvae, with biological replication. Ae. aegpyti larvae were purchased from Benzon Research, Inc. (Carlisle, PA). Larvae were washed with sterile water before transfer to 24-well assay plates containing 1 mL of sterile water in each well. Each well contained 5 larvae. The final DMSO concentration in each assay well was 1%. Larval mortality was scored for each well at 24-hour timepoints after application. […] In Table 1, mean mortalities and standard deviations were calculated from at least three independent biological replicates. […] LC50 values were calculated using GraphPad Prism software.

Aedes aegypti = settings: previously shown; cited from earlier work
[14] = Spodoptera frugiperda, first instar larvae, calculated from killing dose curves FIG. 3D to 3NN, read-out: LD50 (the source's name)

O=[N+]([O-])c1ccc(C(c2c[nH]c3cc(Cl)ccc23)c2c[nH]c3cc(Cl)ccc23)cc1 [BIM-32]
lethality (Vip3A resistant FAW; neonates): strong lethality | lethality (Cry1Fa resistant FAW; neonates): strong lethality

Clc1ccc2c(C(c3ccccc3)c3c[nH]c4cc(Cl)ccc34)c[nH]c2c1 [BIM-25]
LC50 [1, 14]: 504 µM | lethality (Vip3A resistant FAW; neonates): strong lethality | lethality (Cry1Fa resistant FAW; neonates): strong lethality

Clc1ccc2c(Cc3c[nH]c4cc(Cl)ccc34)c[nH]c2c1 [BIM-11]
LC50 [1, 14]: 1180 µM | lethality (Vip3A resistant FAW; Vip3A-resistant neonates): 100%

Clc1ccc2c(C(c3ccccc3Br)c3c[nH]c4cc(Cl)ccc34)c[nH]c2c1 [BIM-34]
LC50 [1, 14]: 352 µM | lethality (Cry1Fa resistant FAW; Cry1 FAW neonates): 100%

Clc1ccc2c(C(c3ccc(Br)cc3)c3c[nH]c4cc(Cl)ccc34)c[nH]c2c1 [BIM-28]
LC50 [1, 14]: 371 µM | lethality (Cry1Fa resistant FAW; Cry1 FAW neonates): 100%

Clc1ccc2c(C(Cc3ccccc3)c3c[nH]c4cc(Cl)ccc34)c[nH]c2c1 [BIM-26]
lethality [2]: 60-70% | LC50 [1, 14]: 581 µM

c1ccc2c(Cc3c[nH]c4ccccc34)c[nH]c2c1 [Arundine, 3,3′-diindolylmethane]
mortality [3]: greater than 95% | % killing ([1]; 156 μg/mL arundine): 40% | % killing ([1]; 625 μg/mL arundine): 63% | % killing ([1]; 2500 μg/mL arundine): 97% | LC50 [1, 14]: 1820 µM | % killing ([4]; 156 μg/mL arundine): 47% | % killing ([4]; 625 μg/mL arundine): 90% | % killing ([4]; 2500 μg/mL arundine): 83% | % killing ([5]; 156 μg/mL arundine): 74% | % killing ([5]; 625 μg/mL arundine): 74% | % killing ([5]; 2500 μg/mL arundine): 87% | % killing ([6]; 156 μg/mL arundine): 23% | % killing ([6]; 625 μg/mL arundine): 100% | % killing ([6]; 2500 μg/mL arundine): 100% | % killing ([7]; 156 μg/mL arundine): 40% | % killing ([7]; 625 μg/mL arundine): 50% | % killing ([7]; 2500 μg/mL arundine): 90% | % killing ([8]; 156 μg/mL arundine): 100% | % killing ([8]; 625 μg/mL arundine): 70% | % killing ([8]; 2500 μg/mL arundine): 97% | % killing ([9]; 156 μg/mL arundine): 72% | % killing ([9]; 625 μg/mL arundine): 94% | % killing ([9]; 2500 μg/mL arundine): 72% | % killing ([10]; 156 μg/mL arundine): 27% | % killing ([10]; 625 μg/mL arundine): 50% | % killing ([10]; 2500 μg/mL arundine): 80% | % killing ([11]; 156 μg/mL arundine): 41% | % killing ([11]; 625 μg/mL arundine): 72% | % killing ([11]; 2500 μg/mL arundine): 93% | % killing ([12]; 156 μg/mL arundine): 100% | % killing ([12]; 625 μg/mL arundine): 100% | % killing ([12]; 2500 μg/mL arundine): 100% | % killing ([13]; 156 μg/mL arundine): 21% | % killing ([13]; 625 μg/mL arundine): 50% | % killing ([13]; 2500 μg/mL arundine): 39%

c1ccc2[nH]c(Cc3c[nH]c4ccccc34)cc2c1 [3-((1H-indol-2-yl)methyl)-1H-indole, 3-((1H-Indol-2-yl)methyl)-1H-indole]
LC50 (Aedes aegypti larvae): 5.5 µg/mL and 22.5 µM | activity against Aedes aegypti (Aedes aegypti): active | LC50 ([1]; Spodoptera frugiperda, first instar larvae, N=16 per concentration, representative curve fit): 598 µg/mL and 2.4 mM | activity against S. frugiperda ([1]; first instar larvae): active

Cc1ccc(C(c2c[nH]c3cc(Cl)ccc23)c2c[nH]c3cc(Cl)ccc23)cc1 [BIM-29]
LC50 ([1]; first instar larvae, calculated from killing dose curves FIG. 3D to 3NN, read-out: LD50 (the source's name)): 611 µM | lethality (Cry1Fa resistant FAW; Cry1 FAW neonates): 100%
